According to patent USRE40155E1, “Methods for treatment of benign and malignant tumors, including lymphomas, leukemias, and leiomyomas” (priority 1995, dated 2008):

Key:
[1] = test system: fresh human promyelocytic leukemia cells (AML3); conditions: cited from earlier work
AML-3 patients = conditions: oral, alone; cited from earlier work
[2] = test system: human Burkitt's lymphoma (RAJI) cells; assay: MTS assay of RAJI cell proliferation; format: cell-based; conditions: 900 mcg/ml, 72 hours
Procedure: Inhibition of proliferation by pirfenidone of human Burkitt's lymphoma (RAJI) cells in vitro.
(§1) To determine the inhibitory effect of pirfenidone concentrations on Burkitt's lymphoma (RAJI) cells, a MTS assay was used which incorporates a tetrazolium dye that measures the cellular conversion of the dye into a formazan product by the activation of NADH-generating dehydrogenases found in metabolically active cells.
(§2) 1. 100 microl. of cells was seeded into 96 well plates at 1×10^5 cells/ml in media containing 100 mcg/ml, 300 mcg/ml and 900 mcg/ml of pirfenidone, as well as a pirfenidone-free media control.
(§3) 2. Cells were incubated at 37 degrees C., at 5.0% CO2 for 72 hours.
(§4) 3. After incubation a standard curve was made of 100 microliters of cells added to the plate at 5×10^5 cells/ml making 1:2 dilutions all the way down to a pre-set degree of dilution.
(§5) 4. 2.0 mls of the MTS solution was mixed with a 100 microliter of the PMS solution, and 20 microliters of this combined dye solution was added to each well and incubated at 37 degrees C., 5.0% CO2 for 3 hours.
(§6) 5. Subsequently the absorbance was read at 490 nm.

[3] = test system: human promyelocytic leukemia (HL-60) cells; assay: Inhibition of proliferation of HL-60 cells, Trypan Blue cell counts; format: cell-based
From the text: Inhibition of proliferation by pirfenidone of human promyelocytic leukemia (HL-60) cells in vitro.
[…] Five ml of each pirfenidone concentration, and of the control were placed into a T25 tissue culture flask along with 1×10^5 cells. Every day for 4 days an aliquote from each flask was taken out, then stained with Trypan Blue, and counts were repeated three times on each aliquote.

[4] = test system: human T-cell leukemia (JURKAT) cells; assay: MTS assay of JURKAT cell proliferation; format: cell-based; conditions: 900 mcg/ml, 72 hours
Procedure: Inhibition of proliferation by pirfenidone of human T-cell leukemia (JURKAT) cells in vitro.
as §1, with “human T-cell leukemia (JURKAT),” for “Burkitt's lymphoma (RAJI) cells,”
as §2, §3, §4, §5, §6

human leiomyoma cells = assay: Leiomyoma cell proliferation, cell counts and Trypan Blue viability on day 7; format: cell-based
Procedure: Leiomyoma tissues were obtained from several premenopausal women with symptomatic uterine fibroids at elective hysterectomy, and who were not receiving any hormonal or other drug therapy. The fibroid tissues were minced into 1-2 mm# explants and placed in suitable DMEM supplemented with 10% bovine serum. The fibroid tissue was digested for 14-18 hours at 37 degrees C. in an incubator. After centrifugation, a resulting cell pellet was resuspended in DMEM and then placed in culture flasks. The cultures were maintained at 37 degrees centigrade in a humidified atmosphere of 5% CO2 and 95% air.
Leiomyoma cells were plated in 100 mm dishes (100,000 each dish) and allowed to attach overnight in DMEM plus 10% fetal bovine serum until they reached 80-90% confluence.

SMILES | induction of differentiation in vitro [1] | clinical response (AML-3 patients) | reduction in number of active RAJI cells [2] [%] | toxic death of HL-60 cells ([3]; 900 micrograms/ml, after 3 and 4 days) | inhibition of proliferation and cell death of HL-60 cells ([3]; 1400 micrograms/ml) | inhibition at 900 µg/mL ([3]; Homo sapiens, HL-60, 900 micrograms/ml, after 3 and 4 days) [%] | reduction in number of active JURKAT cells [4] [%] | CELL COUNTS (DAY 7) LEIOMYOMA (human leiomyoma cells; 0.01 MG/ML) | RECENT DEAD CELLS (DAY 7) LEIOMYOMA (human leiomyoma cells; 0.01 MG/ML) | CELL COUNTS (DAY 7) LEIOMYOMA (human leiomyoma cells; 0.1 MG/ML) | RECENT DEAD CELLS (DAY 7) LEIOMYOMA (human leiomyoma cells; 0.1 MG/ML) | CELL COUNTS (DAY 7) LEIOMYOMA (human leiomyoma cells; 0.3 MG/ML) | RECENT DEAD CELLS (DAY 7) LEIOMYOMA (human leiomyoma cells; 0.3 MG/ML) | CELL COUNTS (DAY 7) LEIOMYOMA (human leiomyoma cells; 1.0 MG/ML) | RECENT DEAD CELLS (DAY 7) LEIOMYOMA (human leiomyoma cells; 1.0 MG/ML) | percentage of dead leiomyoma cells (human leiomyoma cells; 1000 micrograms/ml) [%] | effect on proliferation of leiomyoma cells (human leiomyoma cells; graded concentrations in the culture media, 7 days (FIG. 4))
CC1=C(/C=C/C(C)=C/C=C/C(C)=C/C(=O)O)C(C)(C)CCC1 [All-trans-retinoic acid] | differentiate in vitro to mature functional gramulocytes | complete remission |  |  |  |  |  |  |  |  |  |  |  |  |  |  | 
Cc1ccc(=O)n(-c2ccccc2)c1 [pirfenidone] |  |  | 45 | without causing a toxic death of the cells | deaths of almost all cells | 63 | 75 | 315,000 | 8.0 | 205,000 | 10.0 | 170,000 | 6.0 | 69,000 | 16.0 | 16 | significant inhibitory effect
